Reference: US8697628B2, “Methods of using AMPD2 inhibitors for the treatment of fatty liver, obesity and diabetes” (The Regents of the University of Colorado, a body corporate, priority 2010, dated 2014)

Experiments:
[1] = system: AMP deaminase in isolated cardiomyoctes; conditions: isolated cardiomyocytes; cited from earlier work
[2] = system: purified human cardiac AMP deaminase; conditions: purified enzyme; cited from earlier work
[3] = biological target: T1, adenosine deaminase (Homo sapiens, UniProt P00813); conditions: cited from earlier work
T1 sequence (P00813 1-363): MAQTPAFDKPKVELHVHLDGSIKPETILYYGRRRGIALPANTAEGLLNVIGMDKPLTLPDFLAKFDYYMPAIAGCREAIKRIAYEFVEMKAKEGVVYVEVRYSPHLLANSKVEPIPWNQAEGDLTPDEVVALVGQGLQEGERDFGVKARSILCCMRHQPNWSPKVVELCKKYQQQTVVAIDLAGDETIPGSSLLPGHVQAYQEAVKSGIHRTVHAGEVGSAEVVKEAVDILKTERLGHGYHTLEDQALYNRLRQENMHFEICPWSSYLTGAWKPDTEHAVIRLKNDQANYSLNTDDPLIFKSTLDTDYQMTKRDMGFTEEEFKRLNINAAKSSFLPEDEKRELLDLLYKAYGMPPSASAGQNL

[4] = biological target: AMP deaminase; conditions: Ki as low as; cited from earlier work
[5] = system: AMPD isolated from squirrel liver (AMPD2); assay: AMP deaminase activity by ammonia production; format: biochemical
Procedure: AMP deaminase activity was determined by estimating the production of ammonia by a modification of the method described by Chaney and Marbach. See, Chaney et al., Clin Chem., 1962, 8, 130-132; Ito et al., J Biochem., 1988, 103, 259-262; and Sims et al., Neurobiol Aging., 1998, 19, 385-391. Briefly, the reaction mixture consisted of 25 mM sodium citrate, pH 6.0, 50 mM potassium chloride, and different concentration of AMP. The enzyme reaction was initiated by the addition of the enzyme solution and incubated at 37° C. for 15 min. The reaction was stopped with the addition of the phenol/hypochlorite reagents: Reagent A (100 mM phenol and 0.050 g/L sodium nitroprusside in H2O) was added, followed by reagent B (125 mM sodium hydroxide, 200 mM dibasic sodium phosphate, and 0.1% sodium hypochlorite in H2O) and incubated for 30 min at 25° C. The absorbance of the samples was measured at 625 nm with a spectrophotometer. To determine the absolute specific activity of ammonia production (micromoles ammonia/min), a calibration curve was determined in the range of 5 μM to 1 mM of ammonia.
Using the procedure above, various AMPD2 inhibitors were assayed. […] For this assay AMPD isolated from squirrel liver was used, which only expresses AMPD2 and not the other AMPD isoforms.

[6] = system: HepG2 cells; assay: Fructose-stimulated HepG2 cells treated with metformin or AICAR; format: cell-based, human; conditions: for rise in intracellular triglycerides in response to fructose: HepG2, fructose 5 mM; for fall in enoyl CoA hydratase-1 (ECH-1) levels (defect in fat oxidation): HepG2, fructose 5 mM for 72 hrs, densitometry of western blot
[7] = system: AMP deaminase; conditions: cited from earlier work
[8] = system: HepG2 cells; conditions: with IMP
[9] = biological target: T1, adenosine deaminase; conditions: cited from earlier work; remark: listed apart in the source
[10] = biological target: T2, AMPD2 (Homo sapiens, UniProt Q01433); assay: AMPD2 regulation by fructose-1-phosphate; format: biochemical; conditions: FIG. 15
T2 sequence (Q01433 1-825): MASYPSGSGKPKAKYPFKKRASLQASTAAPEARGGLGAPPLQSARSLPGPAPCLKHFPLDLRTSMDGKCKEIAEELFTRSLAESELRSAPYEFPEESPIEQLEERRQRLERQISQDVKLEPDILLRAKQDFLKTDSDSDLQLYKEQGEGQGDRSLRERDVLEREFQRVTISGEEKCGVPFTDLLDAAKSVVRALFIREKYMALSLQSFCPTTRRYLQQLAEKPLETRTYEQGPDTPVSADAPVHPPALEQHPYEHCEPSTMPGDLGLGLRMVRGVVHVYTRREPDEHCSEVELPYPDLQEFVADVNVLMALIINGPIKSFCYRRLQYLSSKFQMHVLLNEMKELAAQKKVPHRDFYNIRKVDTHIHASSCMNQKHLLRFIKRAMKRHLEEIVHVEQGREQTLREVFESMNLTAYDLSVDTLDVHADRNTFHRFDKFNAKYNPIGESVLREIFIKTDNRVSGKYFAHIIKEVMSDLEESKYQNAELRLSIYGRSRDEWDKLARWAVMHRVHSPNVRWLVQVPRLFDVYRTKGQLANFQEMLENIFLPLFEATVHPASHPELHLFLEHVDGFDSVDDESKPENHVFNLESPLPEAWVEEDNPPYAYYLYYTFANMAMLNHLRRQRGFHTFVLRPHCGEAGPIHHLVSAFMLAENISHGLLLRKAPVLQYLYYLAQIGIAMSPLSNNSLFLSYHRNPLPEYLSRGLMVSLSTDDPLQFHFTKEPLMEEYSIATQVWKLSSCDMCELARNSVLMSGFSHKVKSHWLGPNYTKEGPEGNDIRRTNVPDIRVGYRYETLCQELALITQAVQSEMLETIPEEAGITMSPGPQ
From the text: Fructokinase uses ATP to phosphorylate fructose to fructose-1-phosphate leading to a reduction of ATP and generation of AMP, leading to the activation of AMPD2.

[11] = system: fructose induced fatty liver; assay: Fructose induced fatty liver and hypertriglyceridemia in rats; format: in vivo, Male Sprague Dawley rats
From the text: Fructose only and control diet rats also received daily i.p injections of vehicle. At the end of two weeks rats were sacrificed. […] FIG. 12A. […] FIG. 12B.

[12] = system: AMPD2 mRNA; assay: Silencing of AMPD2 with shRNA in HepG2 cells; format: cell-based, human
From the text: An shRNA for AMPD2 was employed to silence human hepatic cells (HepG2). (FIGS. 3 and 4) The silencing vector pSM2-AMPD2 (V2HS—172668, Open Biosystems) incorporates a 22-base shRNAmir trigger designed to mimic a natural microRNA primary transcript. The target sequence is specific for human AMPD2 and has been selected based on thermodynamic criteria for optimal small RNA performance. The specific sequence is 5′-[…]-3′(SEQ ID NO: 1).
The immortalized human hepatocytes cell line, HepG2, was transfected with the silencing vector pSM2-AMPD2 using Lipofectamine LTX Plus (Invitrogen) as described by the manufacturer (FIG. 4). Briefly, cell cultures were grown to 90-95% confluence in normal growth media and in 24-well plates. Lipid-DNA complexes were prepared as per recommended protocols using growth media without serum. 100 μl of the lipid-DNA solution was added per well of attached cells and incubated for 4 hrs at 37° C. Wells were then diluted with 1.5 ml of normal growth media and incubated for an additional 24 hrs prior to addition of selective media containing 1 μg/mL Puromycin antibiotic. After 7 days, stable transfectants (clones) were selected with glass cloning rings, replated and a second colony selection was performed to provide a clean clone for analysis. Validation of AMPD2 gene knock down was performed by harvesting protein and performing a Western blot for protein expression. Clone #5 was subsequently used for the experiments and was designated as sAMPD2.
A key enzyme in Beta fatty acid oxidation, enoyl CoA hydratase-1 (ECH-1), was stimulated in control cells as well as fructose treated cells in which AMPD2 had been silenced. The inhibition of AMPD2 by sAMPD2 was accompanied by an upregulation of phosphorylated AMPkinase (Thr172) in both unstimulated and fructose stimulated hepatocytes, whereas total AMPK was not altered.
The stimulation of fat oxidation in AMPD2 knocked down hepatocytes was confirmed by measuring β hydroxybutyrate, a fat oxidation product (FIG. 5B).
The stimulation of phosphorylated AMP kinase in human hepatocytes (HepG2 cells) by silencing AMPD2 with shRNA as shown in FIG. 5A led to […] of target genes as noted by Western blot (FIG. 6A). For example, the phosphorylated form of Acetyl CoA Carboxylase (pACC) which is involved in triglyceride synthesis was induced by silencing AMPD2 in both unstimulated and fructose stimulated cells. […] Importantly, these changes blocked the triglyceride accumulation in HepG2 cells in response to fructose (FIG. 6B).
Silencing AMPD2 prevented the upregulation of KHK in response to fructose.

[13] = unstimulated and fructose stimulated hepatocytes

3-[2-(3-carboxy-4-bromo-5,6,7,8-tetrahydronaphthyl)ethyl]-3,6,7,8-tetrahydroimidazo[4,5-d][1,3]diazepin-8-ol [compound 24b]
concentration found to inhibit the enzyme [1]: 0.5 mM
concentration found to inhibit [2]: 0.5 µM
activity for adenosine deaminase [3]: minimal activity
Ki [4]: 2 nM

NC(=O)c1ncn([C@@H]2O[C@H](CO)[C@@H](O)[C@H]2O)c1N [AICAR, aminoimidazole carboxamide ribonucleotide]
AMPD2 activity ([5]; FIG. 8A): inhibits AMPD2 activity in a dose dependent manner
rise in intracellular triglycerides in response to fructose [6]: prevented the rise
fall in enoyl CoA hydratase-1 (ECH-1) levels (defect in fat oxidation) [6]: reversed

OC[C@H]1O[C@@H](n2cnc3c2N=CNC[C@H]3O)[C@H](O)[C@@H]1O [Coformycin]
AMP deaminase inhibition [7]: inhibits

Oc1ncnc2[nH]ncc12 [allopurinol]
IMP-stimulated triglyceride accumulation [8]: partially blocked
rescue of the IMP-induced reduction in ECoAH [8]: cannot fully rescue

OC[C@H]1C[C@@H](n2cnc3cncnc32)[C@H](O)[C@@H]1O [carbocyclic nebularine]
AMP deaminase inhibition [7]: block
adenosine deaminase inhibition [9]: block

OC[C@H]1O[C@@H](c2n[nH]c3cncnc23)[C@H](O)[C@@H]1O [deaminoformycin]
AMP deaminase inhibition [7]: block
adenosine deaminase inhibition [9]: block

O=C(COP(=O)(O)O)[C@@H](O)[C@H](O)[C@H](O)CO [fructose-1-phosphate]
AMPD2 activity [10]: increases

CN(C)C(=N)N=C(N)N [metformin]
rise in intracellular triglycerides in response to fructose [6]: prevented the rise
fall in enoyl CoA hydratase-1 (ECH-1) levels (defect in fat oxidation) [6]: reversed

OC[C@H]1O[C@@H](n2cnc3c2NC=NC[C@H]3O)C[C@@H]1O [pentostatin, deoxycoformycin]
inhibition of AMPD2 activity ([5]; in the presence of 2 mM AMP): 64%
inhibition of AMPD2 activity ([5]; in the presence of 10 mM AMP): 72%
AMP deaminase inhibition [7]: block
rise in fasting serum triglycerides in response to fructose ([11]; at two weeks, 0.1 mg/kg daily i.p.): significantly reduced the rise
rise in serum triglycerides in response to a bolus of fructose ([11]; at two weeks, fructose 2 g/kg body weight by gavage): blocked the rise
fatty liver (lipid deposits, Oil Red O stain) ([11]; fructose 20% in water two weeks, 0.1 mg/kg daily i.p.): largely prevented

sAMPD2: silencing vector pSM2-AMPD2 with 22-base shRNAmir specific for human AMPD2, 5′-ACCTGGGAATCTGCTCATTGTT-3′; stable HepG2 clone #5 (the letters are possibly those of the target site)
triglyceride accumulation in HepG2 cells in response to fructose ([12]; FIG. 6B): blocked
AMPD2 expression ([12]; control HepG2 cells, Western blot): reduced
enoyl CoA hydratase-1 (ECH-1) ([12]; control cells as well as fructose treated cells): stimulated
increased AMPD2 expression ([12]; fructose treated hepatocytes, Western blot): blocked
phosphorylated form of Acetyl CoA Carboxylase (pACC) ([12]; unstimulated and fructose stimulated cells, Western blot): induced
phosphorylated AMPkinase (Thr172) [12, 13]: upregulation
total AMPK [12, 13]: not altered
phosphorylated form of glycogen synthase (pGS) ([12]; unstimulated conditions and in the presence of fructose): induced
